Results taken from US20050096224A1 (priority 2002, published 2005).

Tested on: G. pallida
Experiment: Test A: control of G. pallida by oxamyl on potted potato plants
Type: in vivo, Globodera pallida
Conditions: serial small doses at 4-day, 7-day or 14-day intervals over the hatching period vs equivalent dose (3.5, 4.5 or 5.5 kg ai/ha) in one application at planting; 70 days; initial 10 or 50 eggs/g of soil; potato in pots
Description: G. pallida is the more pernicious pest of potatoes. Studies have been conducted with Composition A comprising oxamyl as described above.
The test units consisted of large diameter pots each containing one potato plant, planted in soil amended with eggs of G. pallida at either 24 cysts per pot (estimated to be about 10 eggs/g of soil) or 120 cysts per pot (estimated to be about 50 eggs/g of soil). These pest burdens represent a level of infestation that would require treatment in order to prevent crop damage and potential multiplication of the pest (10 eggs/g of soil) and substantial yield loss (50 eggs/g of soil).
Composition A was introduced into the test units diluted in a constant volume of water. […] The dose at each application was applied in the same volume of water and in equal incremental quantities. […] The number of cysts attached to the roots per gram of root mass (washed free of soil) was determined at 70 days (10 weeks) after commencement of the trial. […]

With CNC(=O)ON=C(SC)C(=O)N(C)C [oxamyl, N,N-dimethyl-2-methylcarbamoyloxyimino-2-(methylthio)acetamide] the “control of cyst production by G. pallida (number of cysts attached to the roots per gram of root mass)” value was “superior control”.
